Source: ChEMBL document CHEMBL1909046, “DrugMatrix in vitro pharmacology data”
pIC50, pKi: −log10 of the molar value.

What was measured:
Nitric oxide synthase 1 = Nitric oxide synthase 1 (Rattus norvegicus, UniProt P29476); type: tissue-based, Cerebellum; also: in other assays of this panel Not Active means under 50% inhibition at 10 µM
Cytochrome P450 3A4 = Cytochrome P450 3A4 (Homo sapiens, UniProt P08684); conditions: bti-tn-5b1-4; also: in other assays of this panel Not Active means under 50% inhibition at 10 µM
Cytochrome P450 3A4, sequence (P08684 whole entry): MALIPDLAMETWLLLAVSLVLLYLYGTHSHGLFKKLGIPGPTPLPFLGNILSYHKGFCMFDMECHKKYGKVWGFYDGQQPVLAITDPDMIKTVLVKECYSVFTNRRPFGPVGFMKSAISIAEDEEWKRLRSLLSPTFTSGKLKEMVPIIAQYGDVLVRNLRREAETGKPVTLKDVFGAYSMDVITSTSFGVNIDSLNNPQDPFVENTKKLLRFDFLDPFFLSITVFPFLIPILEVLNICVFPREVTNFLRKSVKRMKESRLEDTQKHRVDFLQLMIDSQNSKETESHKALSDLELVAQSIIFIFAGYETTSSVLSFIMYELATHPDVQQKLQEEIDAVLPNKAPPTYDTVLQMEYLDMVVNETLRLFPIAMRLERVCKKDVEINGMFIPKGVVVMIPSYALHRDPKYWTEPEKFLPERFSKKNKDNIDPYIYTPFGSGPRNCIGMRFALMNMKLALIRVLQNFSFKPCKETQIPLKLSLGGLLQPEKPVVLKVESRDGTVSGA

[1] = target: cGMP-specific 3',5'-cyclic phosphodiesterase (Homo sapiens, UniProt O76074); assay: DRUGMATRIX: Phosphodiesterase PDE5 enzyme inhibition (substrate: [3H]cGMP + cGMP); type: tissue-based; conditions: platelet; Not Active = under 50% inhibition at 10 µM
[2] = DRUGMATRIX: Glutamate, Kainate radioligand binding (ligand: [3H] Kainic acid); type: cell membranes, Rattus norvegicus, Wistar, Brain, Membrane; conditions: Not Active = under 50% inhibition at 10 µM
Progesterone receptor = target: T1, Progesterone receptor (Bos taurus, UniProt Q690N0); assay: DRUGMATRIX: Progesterone radioligand binding (ligand: [3H] R-5020); type: tissue-based, Uterus; conditions: Not Active = under 50% inhibition at 10 µM
T1 sequence (Q690N0 whole entry): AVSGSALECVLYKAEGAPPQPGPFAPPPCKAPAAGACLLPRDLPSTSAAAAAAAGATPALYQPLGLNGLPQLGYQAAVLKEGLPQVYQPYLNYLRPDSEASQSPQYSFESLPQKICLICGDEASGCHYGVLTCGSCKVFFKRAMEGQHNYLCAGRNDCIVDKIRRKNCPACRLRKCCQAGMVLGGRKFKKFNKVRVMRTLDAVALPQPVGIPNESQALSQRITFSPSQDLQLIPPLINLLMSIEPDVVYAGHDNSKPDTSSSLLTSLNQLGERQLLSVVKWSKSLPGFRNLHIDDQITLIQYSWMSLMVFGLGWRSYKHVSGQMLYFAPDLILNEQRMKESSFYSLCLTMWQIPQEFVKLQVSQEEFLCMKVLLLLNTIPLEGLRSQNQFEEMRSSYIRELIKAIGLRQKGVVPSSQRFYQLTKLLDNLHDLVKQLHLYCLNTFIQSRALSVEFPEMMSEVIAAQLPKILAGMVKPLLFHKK

Nitric oxide synthase 1, sequence (P29476 whole entry): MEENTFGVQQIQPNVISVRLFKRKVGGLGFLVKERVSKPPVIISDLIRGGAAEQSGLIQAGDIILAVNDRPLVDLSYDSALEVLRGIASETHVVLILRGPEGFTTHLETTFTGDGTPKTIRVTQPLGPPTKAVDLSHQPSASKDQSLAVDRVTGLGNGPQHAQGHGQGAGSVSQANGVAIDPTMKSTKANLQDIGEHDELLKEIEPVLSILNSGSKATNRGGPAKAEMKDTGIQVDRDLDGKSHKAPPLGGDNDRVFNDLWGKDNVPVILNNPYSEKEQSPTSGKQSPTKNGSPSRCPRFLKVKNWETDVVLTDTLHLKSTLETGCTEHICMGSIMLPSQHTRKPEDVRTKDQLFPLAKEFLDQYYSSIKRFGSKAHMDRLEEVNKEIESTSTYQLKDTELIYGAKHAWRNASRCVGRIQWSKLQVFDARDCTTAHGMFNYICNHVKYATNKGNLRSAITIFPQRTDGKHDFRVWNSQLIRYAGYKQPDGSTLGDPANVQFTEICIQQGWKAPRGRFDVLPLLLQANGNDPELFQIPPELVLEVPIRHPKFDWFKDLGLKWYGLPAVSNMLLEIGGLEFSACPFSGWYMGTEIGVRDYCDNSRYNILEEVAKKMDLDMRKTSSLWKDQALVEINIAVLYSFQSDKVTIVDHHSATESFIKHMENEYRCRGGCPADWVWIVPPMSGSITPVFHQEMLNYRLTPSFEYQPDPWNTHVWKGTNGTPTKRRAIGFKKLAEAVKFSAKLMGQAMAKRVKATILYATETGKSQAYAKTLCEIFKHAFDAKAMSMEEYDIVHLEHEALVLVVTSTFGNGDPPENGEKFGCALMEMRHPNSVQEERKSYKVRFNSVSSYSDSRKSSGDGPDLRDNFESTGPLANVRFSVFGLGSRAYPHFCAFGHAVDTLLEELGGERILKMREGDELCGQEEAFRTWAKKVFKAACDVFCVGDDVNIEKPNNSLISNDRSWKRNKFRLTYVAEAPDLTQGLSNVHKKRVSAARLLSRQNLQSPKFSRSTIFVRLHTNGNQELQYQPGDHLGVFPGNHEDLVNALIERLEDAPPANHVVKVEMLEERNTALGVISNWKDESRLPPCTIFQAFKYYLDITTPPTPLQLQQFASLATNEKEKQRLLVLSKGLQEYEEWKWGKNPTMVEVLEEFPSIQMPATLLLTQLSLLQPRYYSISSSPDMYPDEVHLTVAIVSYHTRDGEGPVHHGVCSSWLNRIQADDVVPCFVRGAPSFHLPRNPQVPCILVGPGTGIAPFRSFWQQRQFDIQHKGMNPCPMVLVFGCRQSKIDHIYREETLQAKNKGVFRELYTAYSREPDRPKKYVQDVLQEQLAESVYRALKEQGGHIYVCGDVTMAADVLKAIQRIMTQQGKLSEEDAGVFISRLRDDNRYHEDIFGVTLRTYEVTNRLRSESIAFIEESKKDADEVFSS

Compound | IC50 (Nitric oxide synthase 1) | IC50 (Cytochrome P450 3A4) | Ki (Cytochrome P450 3A4) | IC50 [1] | IC50 [2] | Ki [2] | IC50 (Progesterone receptor) | pIC50 (Progesterone receptor; read-out: IC50) | pKi (Progesterone receptor; read-out: Ki)
CC1Cc2ccccc2N1NC(=O)c1ccc(Cl)c(S(N)(=O)=O)c1 (stereo not given) [INDAPAMIDE] | Not Active | Not Active | Not Active | Not Active | Not Active | Not Active | Not Active |  | 
Nc1nc(N)nc(-c2cc(Cl)ccc2Cl)n1.O=C(O)/C=C\C(=O)O [IRSOGLADINE MALEATE] | Not Active | Not Active | Not Active | Not Active | Not Active | Not Active | Not Active |  | 
Sc1ncnc2nc[nH]c12 [MERCAPTOPURINE ANHYDROUS] | Not Active | Not Active | Not Active | Not Active | Not Active | Not Active | Not Active |  | 
C[C@](N)(Cc1ccc(O)c(O)c1)C(=O)O [METHYLDOPA] | Not Active | Not Active | Not Active | Not Active | Not Active | Not Active | Not Active |  | 
C[C@]12CCC(=O)C=C1CC[C@@H]1[C@@H]2CC[C@@]2(C)[C@H]1CC[C@]2(C)O [METHYLTESTOSTERONE] | Not Active | Not Active | Not Active | Not Active | Not Active | Not Active |  | 6.60 | 7.48
Cc1ccccc1N1C(=O)c2cc(S(N)(=O)=O)c(Cl)cc2NC1C (stereo not given) [METOLAZONE] | Not Active | Not Active | Not Active | Not Active | Not Active | Not Active | Not Active |  | 
COCCc1ccc(OCC(O)CNC(C)C)cc1 (stereo not given) [METOPROLOL] | Not Active | Not Active | Not Active | Not Active | Not Active | Not Active | Not Active |  | 
CCn1cc(C(=O)O)c(=O)c2cc(F)c(N3CCNCC3)cc21 [NORFLOXACIN] | Not Active | Not Active | Not Active | Not Active | Not Active | Not Active | Not Active |  | 
NC1=NC(=O)C(c2ccccc2)O1 (stereo not given) [PEMOLINE] | Not Active | Not Active | Not Active | Not Active | Not Active | Not Active | Not Active |  | 
Nc1nc2c(ncn2CCC(CO)CO)c(=O)[nH]1 [PENCICLOVIR] | Not Active | Not Active | Not Active | Not Active | Not Active | Not Active | Not Active |  | 
CNNCc1ccc(C(=O)NC(C)C)cc1 [PROCARBAZINE] | Not Active | Not Active | Not Active | Not Active | Not Active | Not Active | Not Active |  | 
CC(O)CO (stereo not given) [PROPYLENE GLYCOL] | Not Active | Not Active | Not Active | Not Active | Not Active | Not Active | Not Active |  | 
